Source: ChEMBL document CHEMBL1255323, “Prevalence and susceptibility profile of Candida metapsilosis and Candida orthopsilosis: results from population-based surveillance of candidemia in Spain” (2008)
Values after ≈ are worked out from the molar mass of the structure shown. Numbered stars: 1 amine (or outer) side, 2 acyl side, 3 side chain; on linkers, the order of the positions; unused ones are H or OH. Bridge positions count the residues as written; N and C are the ends. Square brackets hold non-standard residues; d marks the D form. Peptide text beside a SMILES is read from it. * marks the point of attachment. hTyr(3S-OH,4S-OH,3'-OSO3H) = N[C@H](C(=O)O)[C@H](O)[C@@H](O)c1ccc(O)c(OS(=O)(=O)O)c1; pTerphenylCO(4''-OnC5H11) = CCCCCOc1ccc(-c2ccc(-c3ccc(C(=O)*)cc3)cc2)cc1; Orn(4R-OH,5R-OH) = O=C([C@H](C[C@@H](O)[C@@H](O)N[*:3])N[*:1])[*:2]; hTyr(3S-OH,4S-OH) = N[C@H](C(=O)O)[C@H](O)[C@@H](O)c1ccc(O)cc1; Pro(3S-OH,4S-Me) = C[C@H]1CN[C@H](C(=O)O)[C@H]1O; X1 = CCCCCOc1ccc(-c2cc(-c3ccc(C(=O)*)cc3)no2)cc1; Gln(3R-OH) = NC(=O)C[C@@H](O)[C@H](N)C(=O)O; Hyp = O=C(O)[C@@H]1C[C@@H](O)CN1

What was measured:
Type in all cases: functional
Candida parapsilosis = assay: Antifungal activity against Candida parapsilosis by microdilution AFST-EUCAST method; details: Lodderomyces parapsilosis
Candida orthopsilosis = assay: Antifungal activity against Candida orthopsilosis by microdilution AFST-EUCAST method; details: Lodderomyces orthopsilosis
Candida metapsilosis = assay: Antifungal activity against Candida metapsilosis by microdilution AFST-EUCAST method; details: Lodderomyces metapsilosis

Compound | MIC (Candida parapsilosis) [µg/mL] | MIC50 (Candida parapsilosis) [µg/mL] | MIC (Candida orthopsilosis) [µg/mL] | MIC50 (Candida orthopsilosis) [µg/mL] | MIC (Candida metapsilosis) [µg/mL] | MIC50 (Candida metapsilosis) [µg/mL]
C[C@@H]1[C@H](O)[C@@H](C)/C=C/C=C/C=C/C=C/C=C/C=C/C=C/[C@H](O[C@@H]2O[C@H](C)[C@@H](O)[C@H](N)[C@@H]2O)C[C@@H]2O[C@](O)(C[C@@H](O)C[C@@H](O)[C@H](O)CC[C@@H](O)C[C@@H](O)CC(=O)O[C@H]1C)C[C@H](O)[C@H]2C(=O)O [AMPHOTERICIN B] | 0.14 (≈ 0.152 µM) | 0.12 (≈ 0.13 µM) | 0.06 (≈ 0.0649 µM) | 0.06 (≈ 0.0649 µM) | 0.08 (≈ 0.0866 µM) | 0.09 (≈ 0.0974 µM)
CCCCCOc1ccc(-c2ccc(-c3ccc(C(=O)N[C@H]4C[C@@H](O)[C@@H](O)NC(=O)[C@@H]5[C@@H](O)[C@@H](C)CN5C(=O)[C@H]([C@@H](C)O)NC(=O)[C@H]([C@H](O)[C@@H](O)c5ccc(O)cc5)NC(=O)[C@@H]5C[C@@H](O)CN5C(=O)[C@H]([C@@H](C)O)NC4=O)cc3)cc2)cc1 [ANIDULAFUNGIN] ({pTerphenylCO(4''-OnC5H11)}-[Orn(4R-OH,5R-OH)]T[Hyp][hTyr(3S-OH,4S-OH)]T[Pro(3S-OH,4S-Me)]; lactam 1-C) | 0.88 (≈ 0.772 µM) | 1 (≈ 0.877 µM) | 0.38 (≈ 0.333 µM) | 0.5 (≈ 0.438 µM) | 0.17 (≈ 0.149 µM) | 0.18 (≈ 0.158 µM)
CC[C@H](C)C[C@H](C)CCCCCCCCC(=O)N[C@H]1C[C@@H](O)[C@@H](NCCN)NC(=O)[C@@H]2[C@@H](O)CCN2C(=O)[C@H]([C@H](O)CCN)NC(=O)[C@H]([C@H](O)[C@@H](O)c2ccc(O)cc2)NC(=O)[C@@H]2C[C@@H](O)CN2C(=O)[C@H]([C@@H](C)O)NC1=O [CASPOFUNGIN] | 0.4 (≈ 0.366 µM) | 0.5 (≈ 0.457 µM) | 0.16 (≈ 0.146 µM) | 0.12 (≈ 0.11 µM) | 0.22 (≈ 0.201 µM) | 0.25 (≈ 0.229 µM)
OC(Cn1cncn1)(Cn1cncn1)c1ccc(F)cc1F [FLUCONAZOLE] | 0.37 (≈ 1.21 µM) | 0.5 (≈ 1.63 µM) | 0.5 (≈ 1.63 µM) | 0.5 (≈ 1.63 µM) | 1.26 (≈ 4.11 µM) | 1 (≈ 3.27 µM)
Nc1nc(=O)[nH]cc1F [FLUCYTOSINE] | 0.15 (≈ 1.16 µM) | 0.12 (≈ 0.93 µM) | 0.12 (≈ 0.93 µM) | 0.12 (≈ 0.93 µM) | 0.14 (≈ 1.08 µM) | 0.12 (≈ 0.93 µM)
CCC(C)n1ncn(-c2ccc(N3CCN(c4ccc(OCC5COC(Cn6cncn6)(c6ccc(Cl)cc6Cl)O5)cc4)CC3)cc2)c1=O (stereo not given) [ITRACONAZOLE] | 0.02 (≈ 0.0283 µM) | 0.03 (≈ 0.0425 µM) | 0.04 (≈ 0.0567 µM) | 0.03 (≈ 0.0425 µM) | 0.04 (≈ 0.0567 µM) | 0.04 (≈ 0.0567 µM)
CCCCCOc1ccc(-c2cc(-c3ccc(C(=O)N[C@H]4C[C@@H](O)[C@@H](O)NC(=O)[C@@H]5[C@@H](O)[C@@H](C)CN5C(=O)[C@H]([C@H](O)CC(N)=O)NC(=O)[C@H]([C@H](O)[C@@H](O)c5ccc(O)c(OS(=O)(=O)O)c5)NC(=O)[C@@H]5C[C@@H](O)CN5C(=O)[C@H]([C@@H](C)O)NC4=O)cc3)no2)cc1 [MICAFUNGIN] (X1-[Orn(4R-OH,5R-OH)]T[Hyp][hTyr(3S-OH,4S-OH,3'-OSO3H)][Gln(3R-OH)][Pro(3S-OH,4S-Me)]; lactam 1-C) | 0.73 (≈ 0.575 µM) | 1 (≈ 0.787 µM) | 0.25 (≈ 0.197 µM) | 0.25 (≈ 0.197 µM) | 0.28 (≈ 0.22 µM) | 0.25 (≈ 0.197 µM)
CC[C@@H]([C@H](C)O)n1ncn(-c2ccc(N3CCN(c4ccc(OC[C@@H]5CO[C@@](Cn6cncn6)(c6ccc(F)cc6F)C5)cc4)CC3)cc2)c1=O [POSACONAZOLE] | 0.02 (≈ 0.0285 µM) | 0.02 (≈ 0.0285 µM) | 0.03 (≈ 0.0428 µM) | 0.03 (≈ 0.0428 µM) | 0.02 (≈ 0.0285 µM) | 0.02 (≈ 0.0285 µM)
C[C@@H](c1nc(-c2ccc(C#N)cc2)cs1)[C@](O)(Cn1cncn1)c1ccc(F)cc1F [RAVUCONAZOLE] | 0.01 (≈ 0.0229 µM) | 0.02 (≈ 0.0457 µM) | 0.02 (≈ 0.0457 µM) | 0.02 (≈ 0.0457 µM) | 0.02 (≈ 0.0457 µM) | 0.02 (≈ 0.0457 µM)
C[C@@H](c1ncncc1F)[C@](O)(Cn1cncn1)c1ccc(F)cc1F [VORICONAZOLE] | 0.02 (≈ 0.0573 µM) | 0.02 (≈ 0.0573 µM) | 0.03 (≈ 0.0859 µM) | 0.03 (≈ 0.0859 µM) | 0.03 (≈ 0.0859 µM) | 0.03 (≈ 0.0859 µM)
